# Test results taken from US20150198584A1, “IDENTIFICATION OF […] STATES” ([…] AG, priority 2014, published 2015).
# Entries after “also recorded” stand apart in the source; their conditions may differ.
# Assays:
# [1] = test system: HL-60 cell line; assay: Cell physiology assay plate 1a (MBBR, CALCEIN AM, MITOSOX RED, SYTOXRED, light scatter) by flow cytometry; assay type: cell-based, human
# Method: (§1) Cells were deposited into 384 well plates (1×10^6 cells in 40 μl tissue culture media) and serial dilutions of test compounds (or vehicle in the case of controls) were deposited in individual wells using standard robotic techniques. Compound deposition and dilution was performed by BIOMEK FX (5 or 10 step dilutions from 100 to 0.005 μM). Dilutions were prepared from stock solutions of compounds dissolved initially in 100% DMSO. Final volume deposited into each well is 2 μl of each compound dilution (compounds are in a final concentration of 1% DMSO). After incubation in a tissue culture incubator (5% CO2 at 37° C.) for varying periods of time (typically 4 hours), plates were centrifuged at room temperature, followed by removal of 20 μl supernatant fluid, After vibration of the plate to re-suspend cells, a dye mix (Plate in Monobromobimane, CALCEIN AM, MITOSOX™ and SYTOSOX™ RED; plate 1b VYBRANVIOLET™ Live Cell Cycle dye, JC-9, and SYTOSOX™ RED) was added in a total volume of 20 μl, followed by an additional mixing step.
# (§2) Data was acquired using a CYAN™ flow cytometer, with the […]™ software used to compile files for each well on an individual plate using an FCS format. Data for each plate was subsequently analyzed for several quality assurance parameters (total number of events per well, numbers of events associated with morphologically normal events, number of dead cells), as described below.
# Flow cytometric analyses of intrinsic cell properties (forward light scatter and light scattered orthogonal to the laser beam) and fluorescence signals derived from the dyes listed in Table 1 was carried out for plates 1a and 1b.
# MITOSOX™ RED is a compound that can diffuse into viable cells and reacts with superoxide anion species, particularly products of mitochondrial respiration; conditions such as cell stress can cause mitochondria to respond (sometimes rapidly) by increasing respiration and/or release superoxide anions; and
# (3) SYTOXRED™ to measure cell viability (loss of nuclear membrane integrity). SYTOXRED™ is a high-affinity DNA stain that can only pass through the cytoplasmic and nuclear membranes of cells which have lost the integrity of both membranes; thus, brightly fluorescent cells are dead.
# [2] = test system: human peripheral blood monocytes; assay: Kinetics of signal transduction responses to LPS in whole blood monocytes, flow cytometry of fixed and permeabilized cells; assay type: cell-based; conditions: LPS in the presence of the inhibitor, compared to LPS alone
# [3] = test system: HL-60 cells; assay: Mitochondrial membrane potential (MMP) with JC-9, red and green fluorescence, flow cytometry; assay type: cell-based, human
# Method: as §1, with “step. Plates were returned to the tissue culture incubator (5% CO2 at 37° C.) for an additional 15 min (plate 1a) or 30 min (plate 1b), followed by immediate analysis using the […]-CYAN™.” for “step.”
# as §2, with “Each well of the 384 wellplate was sampled with a 6 second sip time, plus 1 second delay between wells, resulting in a total read time for each plate of approximately 45 minutes. Data was” for “Data was”
# Measurements identical to those described in Example 2 above were made using a second combination of dyes:
# (2) JC-9 to measure mitochondrial membrane potential (MMP); and
# The measurement of mitochondrial membrane potential (MMP) with JC-9 was performed with two independent fluorescence channels (green and red fluorescence signals), as changes in MMP cause aggregation of the dye, with different fluorescence emission by the aggregated versus non-aggregated dye molecules. […] At higher valinomycin concentrations, red fluorescence […]. A unique aspect of this assay is that it correlates changes in MMP (JC-9) and cell death (SYTOXRED™) with the phases of the cell cycle (G1, S, and G2M).
# [4] = test system: K562 cells; assay: Cell cycle measured by DNA content in K562 cells; assay type: cell-based, human; conditions: 30 min exposure, listed as imatinib
# Method: Cells were deposited onto dilutions of test compounds deposited into individual wells of 96 well plates, as indicated above. […] Following 15 min incubation (at 37° C.?), cells were pelleted by centrifugation, supernatant removed, and the cells were suspended by vibrating the plate.
# Cell were permeabilized by adding 150 μl cold absolute methanol, followed by incubation at 4° C. for 15 minutes. Permeabilized cells were centrifuged, supernatant removed, and cells were washed three times with cold (4° C.) PBS containing 4% FBS. Following the final wash, cells were centrifuged, the supernatant was removed, and cells were re-suspended in an antibody cocktail (total volume 20 μl) appropriate for that experiment.
# [5] = HL-60 cells, increasing concentration
# [6] = 33 μM, population with altered morphology, compared to cells with normal morphology
# [7] = 33 μM, population with normal morphology
# [8] = HL-60 cells, concentration series
smiles,measurement,setting,value
CNCCC(Oc1ccc(C(F)(F)F)cc1)c1ccccc1 (stereo not shown) [fluoxetine],"cells that have lost ""normal morphology""",[1]; 100 μM,Approximately 30%
same,GSH (MBBR),"[1]; 100 μM, affected cells",reduced
same,ROS (MITOSOX RED),"[1]; 100 μM, affected cells",increased
CS(=O)(=O)N1CCN(Cc2cc3nc(-c4cccc5[nH]ncc45)nc(N4CCOCC4)c3s2)CC1 [GDC0941],kinetics of ERK phosphorylation,[2],delayed
CO/C(=C/C(N)=O)[C@H](C)[C@H](/C=C/c1csc(-c2csc([C@@H](C)/C=C/C=C/C(C)C)n2)n1)OC [myxothiazol],CALCEIN AM (cytoplasmic membrane permeability),"[1]; 100 μM, affected cells",decrease
same,GSH (MBBR),"[1]; 100 μM, affected cells",decrease
same,ROS (MITOSOX RED),"[1]; 100 μM, affected cells",increase
same,"SYTOXRED (cytoplasmic and nuclear membrane permeability, viability)","[1]; 100 μM, affected cells",increase
same,cell morphology (light scatter),"[1]; 100 μM, affected cells",significant change
same,"SYTOXRED (cytoplasmic and nuclear membrane permeability, viability)","[1]; 100 μM, affected cells, listed as myxothiozol",perturbs
CC(=O)[C@]1(O)Cc2c(O)c3c(c(O)c2[C@@H](O[C@H]2C[C@H](N)[C@H](O)[C@H](C)O2)C1)C(=O)c1ccccc1C3=O [idarubicin],JC-9 red fluorescence versus untreated control cells,"[3]; HL60 cells, 1.23 μM",significantly higher
same,concentration at which red fluorescence of JC-9 begins to increase significantly,"[3]; HL60 cells, concentration series",1.23 µM
same,JC-9 green fluorescence,[3]; [5],does not increase
Cc1ccc(NC(=O)c2ccc(CN3CCN(C)CC3)cc2)cc1Nc1nccc(-c2cccnc2)n1 [GLEEVEC™],"change in the cell cycle, as measured by DNA content",[4],no concomitant change
"N#CC(C#N)=NNc1ccc(OC(F)(F)F)cc1 [FCCP, carbonyl cyanide-4-(trifluoromethoxy)phenylhydrazone]",CALCEIN,[1]; [6],increased
same,GSH,[1]; [6],reduced
same,ROS,[1]; [6],increased
same,SYTOXRED,[1]; [6],higher
same,CALCEIN AM level,[1]; [7],normal
same,GSH level,[1]; [7],normal
same,ROS (indicator of mitochondrial stress),[1]; [7],increased
same,nuclear and cytoplasmic membranes (SYTOX Red uptake),[1]; [7],intact
same,cell morphology,"[1]; 33 μM, second distinct population (light blue)",altered
CC(C)[C@@H]1NC(=O)[C@H](C)OC(=O)[C@@H](C(C)C)NC(=O)[C@@H](C(C)C)OC(=O)[C@H](C(C)C)NC(=O)[C@H](C)OC(=O)[C@@H](C(C)C)NC(=O)[C@@H](C(C)C)OC(=O)[C@H](C(C)C)NC(=O)[C@H](C)OC(=O)[C@@H](C(C)C)NC(=O)[C@@H](C(C)C)OC1=O [valinomycin],concentration at which red and green JC-9 fluorescence peak,[3]; [8],~0.045 µM
same,concentration of peak green JC-9 fluorescence,[3]; [8],~0.05 µM
same,JC-9 green fluorescence,[3]; [5],significantly higher; also recorded: initially increase
same,JC-9 red fluorescence,[3]; [5],significantly higher; also recorded: initially increase
same,JC-9 red/green fluorescence ratio,[3]; at higher concentrations (above green peak),increasing
